Literature values as cited in patent US20050118266A1, “Sustained/controlled release solid formulation as a novel drug delivery system with reduced risk of dose dumping” (priority 2002, published 2005).

conditions: according to Biopharmaceutics Classification System

Row | Compound | BCS class | solubility (BCS category)
1 | Cc1cccc(Nc2ccncc2S(=O)(=O)NC(=O)NC(C)C)c1 [torasemide] | Class I | highly soluble
2 | NCC1(CC(=O)O)CCCCC1 [gabapentin] | – | highly soluble
3 | O=C(O)Cc1ccccc1Nc1c(Cl)cccc1Cl [diclofenac sodium] | Class II | poorly soluble
4 | CC[C@H](C)C(=O)O[C@H]1C[C@H](O)C=C2C=C[C@H](C)[C@H](CC[C@@H](O)C[C@@H](O)CC(=O)O)[C@H]21 [pravastatin sodium] | – | highly soluble
5 | CNC(=C[N+](=O)[O-])NCCSCc1ccc(CN(C)C)o1 [ranitidine] | – | highly soluble
